# According to patent US9012655B2, “Antimicrobial/adjuvant compounds and methods” (Denouamed, Inc., priority 2011, dated 2015):
# Assays:
# Test in all cases: MIC panel of challenge pathogens (CLSI)
# Type in all cases: cell-based
# [1] = test system: Staphylococcus aureus AUR58 7005; conditions: AUR587005, Staphylococcus aureus AUR58 7005; for MIC: read-out: 100% inhibition; for MIC50: read-out: MIC50 (50%); for MIC80: read-out: MIC80 (80%)
# Procedure: (§1) The inocula for each bacterial strain were prepared by picking 5-10 distinct colonies from the culture plates and suspending them in the appropriate broth as per Clinical and Laboratory Standards Institute (CLSI) guidelines M07-A8, M24-A or M11-A7 as appropriate. The inoculum was resuspended by vigorous shaking on a vortex mixer for 15 s. The turbidity was then adjusted to McFarland standard 0.5 ([…]). The inoculum was further diluted in the appropriate media for MIC tests to give a final inoculum in each well of 2-8×10^5 CFU/ml. MICs were tested in the appropriate broth in accordance with the appropriate CLSI guidelines.
# (§2) A stock solution of each compound was prepared at a concentration of 1.28 g/L in DMSO. The stock was further diluted in the appropriate media to give a top starting concentration of 128 mg/L in the assay. 100 μL of the appropriate media, as per CLSI guidelines, was dispensed into each well in columns 2-12. 200 μL of the each compound solution (at 256 mg/L) was dispensed into each well in column 1. 100 μL aliquots were pipetted from column 1 wells and dispensed into column 2 with a multichannel pipette (±2% coefficient of variation) thus diluting two-fold. 100 μL samples were then pipetted from column 2 wells and dispensed into column 3. The process was repeated through to column 10. The final 100 μL of diluted drug from column 10 was then discarded. Row 11 acted as a positive control (no compound, but organisms added), Row 12 acted as a negative control (no compound, and no organisms added).
# (§3) 100 μL of the appropriate inoculum suspension in the appropriate media, as per CLSI guidelines, was added to the appropriate wells. […] All plates were incubated in the dark under aerobic or anaerobic conditions at 30-37° C. for 24-48 hours, according to the appropriate CLSI guideline. Plates were read visually 24-48 hours post inoculation. Endpoints of 100% inhibition were determined (CLSI interpretation endpoints following visual examination).
# (§4) MIC50, MIC80, and 100% inhibition results are reported below in μg/mL in the following Tables, indicating each compound tested against a given species and strain: […]
# [2] = test system: Staphylococcus aureus EUP MRSA002; conditions: EUPMRSA002, Staphylococcus aureus EUP MRSA002; for MIC: read-out: 100% inhibition; for MIC50: read-out: MIC50 (50%); for MIC80: read-out: MIC80 (80%)
# Procedure: as §1, §2, §3, §4
# [3] = test system: Staphylococcus aureus AUR59 7005; conditions: AUR597005, Staphylococcus aureus AUR59 7005; for MIC: read-out: 100% inhibition; for MIC50: read-out: MIC50 (50%); for MIC80: read-out: MIC80 (80%)
# Procedure: as §1, §2, §3, §4
# [4] = test system: Staphylococcus aureus EUP SAU040; conditions: EUPSAU040, Staphylococcus aureus EUP SAU040; for MIC: read-out: 100% inhibition; for MIC50: read-out: MIC50 (50%); for MIC80: read-out: MIC80 (80%)
# Procedure: as §1, §2, §3, §4
# [5] = test system: Enterococcus faecalis ATCC51299; conditions: Enterococcus faecalis ATCC51299; for MIC: read-out: 100% inhibition; for MIC50: read-out: MIC50 (50%); for MIC80: read-out: MIC80 (80%)
# Procedure: as §1, §2, §3, §4
# [6] = test system: Staphylococcus epidermidis NRS122; conditions: Staphylococcus epidermidis NRS122; for MIC: read-out: 100% inhibition; for MIC50: read-out: MIC50 (50%); for MIC80: read-out: MIC80 (80%)
# Procedure: as §1, §2, §3, §4
# [7] = test system: Enterococcus faecium ATCC700221; conditions: Enterococcus faecium ATCC700221; for MIC: read-out: 100% inhibition; for MIC50: read-out: MIC50 (50%); for MIC80: read-out: MIC80 (80%)
# Procedure: as §1, §2, §3, §4
# [8] = test system: Staphylococcus aureus NRS384; conditions: Staphylococcus aureus NRS384; for MIC: read-out: 100% inhibition; for MIC50: read-out: MIC50 (50%); for MIC80: read-out: MIC80 (80%)
# Procedure: as §1, §2, §3, §4
# [9] = test system: Staphylococcus aureus EUP MRSA004; conditions: EUPMRSA004, Staphylococcus aureus EUP MRSA004; for MIC: read-out: 100% inhibition; for MIC50: read-out: MIC50 (50%); for MIC80: read-out: MIC80 (80%)
# Procedure: as §1, §2, §3, §4
# [10] = test system: Bacillus cereus NCTC6349; conditions: Bacillus cereus NCTC6349; for MIC: read-out: 100% inhibition; for MIC50: read-out: MIC50 (50%); for MIC80: read-out: MIC80 (80%)
# Procedure: as §1, §2, §3, §4
# [11] = test system: Staphylococcus aureus ATCC43300; conditions: Staphylococcus aureus ATCC43300; for MIC: read-out: 100% inhibition; for MIC50: read-out: MIC50 (50%); for MIC80: read-out: MIC80 (80%)
# Procedure: as §1, §2, §3, §4
# [12] = test system: Staphylococcus aureus NRS383; conditions: Staphylococcus aureus NRS383; for MIC: read-out: 100% inhibition; for MIC50: read-out: MIC50 (50%); for MIC80: read-out: MIC80 (80%)
# Procedure: as §1, §2, §3, §4
# [13] = test system: Staphylococcus aureus AUR131 007035; conditions: AUR131007035, Staphylococcus aureus AUR131 007035; for MIC: read-out: 100% inhibition; for MIC50: read-out: MIC50 (50%); for MIC80: read-out: MIC80 (80%)
# Procedure: as §1, §2, §3, §4
# [14] = test system: Staphylococcus aureus AUR60 7005; conditions: AUR607005, Staphylococcus aureus AUR60 7005; for MIC: read-out: 100% inhibition; for MIC50: read-out: MIC50 (50%); for MIC80: read-out: MIC80 (80%)
# Procedure: as §1, §2, §3, §4
# [15] = test system: Staphylococcus aureus NRS1 (ATCC700699); conditions: Staphylococcus aureus NRS1 (ATCC700699); for MIC: read-out: 100% inhibition; for MIC50: read-out: MIC50 (50%); for MIC80: read-out: MIC80 (80%)
# Procedure: as §1, §2, §3, §4
# [16] = test system: Staphylococcus aureus NRS2 (ATCC700698); conditions: Staphylococcus aureus NRS2 (ATCC700698); for MIC: read-out: 100% inhibition; for MIC50: read-out: MIC50 (50%); for MIC80: read-out: MIC80 (80%)
# Procedure: as §1, §2, §3, §4
# [17] = test system: Staphylococcus aureus NRS382; conditions: Staphylococcus aureus NRS382; for MIC: read-out: 100% inhibition; for MIC50: read-out: MIC50 (50%); for MIC80: read-out: MIC80 (80%)
# Procedure: as §1, §2, §3, §4
# [18] = test system: Enterococcus faecalis ATCC29212; conditions: Enterococcus faecalis ATCC29212; for MIC: read-out: 100% inhibition; for MIC50: read-out: MIC50 (50%); for MIC80: read-out: MIC80 (80%)
# Procedure: as §1, §2, §3, §4
# [19] = test system: Staphylococcus epidermidis NRS7; conditions: Staphylococcus epidermidis NRS7; for MIC: read-out: 100% inhibition; for MIC50: read-out: MIC50 (50%); for MIC80: read-out: MIC80 (80%)
# Procedure: as §1, §2, §3, §4
compound,measurement,setting,value
"Cc1cc(Cl)ccc1-c1cc(-c2nnn[nH]2)sc1-c1ccc(Cl)cc1C [DNM0488, 5-(4,5-Bis(4-chloro-2-methylphenyl)thiophen-2-yl)-1H-tetrazole]",MIC,[1],1 µg/mL
same,MIC50,[1],0.5 µg/mL
same,MIC80,[1],0.5 µg/mL
same,MIC,[2],1 µg/mL
same,MIC50,[2],0.5 µg/mL
same,MIC80,[2],1 µg/mL
same,MIC,[3],0.5 µg/mL
same,MIC50,[3],0.5 µg/mL
same,MIC80,[3],0.5 µg/mL
same,MIC,[4],0.5 µg/mL
same,MIC50,[4],0.5 µg/mL
same,MIC80,[4],0.5 µg/mL
same,MIC,[5],0.5 µg/mL
same,MIC50,[5],0.5 µg/mL
same,MIC80,[5],0.5 µg/mL
same,MIC,[6],2 µg/mL
same,MIC50,[6],1 µg/mL
same,MIC80,[6],2 µg/mL
same,MIC,[7],0.5 µg/mL
same,MIC50,[7],0.25 µg/mL
same,MIC80,[7],0.25 µg/mL
same,MIC,[8],0.5 µg/mL
same,MIC50,[8],0.5 µg/mL
same,MIC80,[8],0.5 µg/mL
same,MIC,[9],0.5 µg/mL
same,MIC50,[9],0.5 µg/mL
same,MIC80,[9],0.5 µg/mL
same,MIC,[10],≤ 0.25 µg/mL
same,MIC50,[10],≤ 0.25 µg/mL
same,MIC80,[10],≤ 0.25 µg/mL
same,MIC,[11],0.5 µg/mL
same,MIC50,[11],0.5 µg/mL
same,MIC80,[11],0.5 µg/mL
same,MIC,[12],0.5 µg/mL
same,MIC50,[12],0.5 µg/mL
same,MIC80,[12],0.5 µg/mL
same,MIC,[13],0.5 µg/mL
same,MIC50,[13],0.5 µg/mL
same,MIC80,[13],0.5 µg/mL
same,MIC,[14],0.5 µg/mL
same,MIC50,[14],0.5 µg/mL
same,MIC80,[14],0.5 µg/mL
same,MIC,[15],≤ 0.25 µg/mL
same,MIC50,[15],≤ 0.25 µg/mL
same,MIC80,[15],≤ 0.25 µg/mL
same,MIC,[16],0.5 µg/mL
same,MIC50,[16],0.5 µg/mL
same,MIC80,[16],0.5 µg/mL
same,MIC,[17],0.5 µg/mL
same,MIC50,[17],0.5 µg/mL
same,MIC80,[17],0.5 µg/mL
same,MIC,[18],0.5 µg/mL
same,MIC50,[18],0.5 µg/mL
same,MIC80,[18],0.5 µg/mL
same,MIC,[19],0.5 µg/mL
same,MIC50,[19],0.25 µg/mL
same,MIC80,[19],0.25 µg/mL
"Cc1ccc(Cl)cc1-c1cc(-c2nnn[nH]2)sc1-c1cc(Cl)ccc1C [DNM0508, 5-(4,5-Bis(5-chloro-2-methylphenyl)thiophen-2-yl)-1H-tetrazole]",MIC,[1],1 µg/mL
same,MIC50,[1],1 µg/mL
same,MIC80,[1],1 µg/mL
same,MIC,[2],1 µg/mL
same,MIC50,[2],0.5 µg/mL
same,MIC80,[2],1 µg/mL
same,MIC,[3],1 µg/mL
same,MIC50,[3],1 µg/mL
same,MIC80,[3],1 µg/mL
same,MIC,[4],1 µg/mL
same,MIC50,[4],1 µg/mL
same,MIC80,[4],1 µg/mL
same,MIC,[5],2 µg/mL
same,MIC50,[5],2 µg/mL
same,MIC80,[5],2 µg/mL
same,MIC,[6],8 µg/mL
same,MIC50,[6],4 µg/mL
same,MIC80,[6],8 µg/mL
same,MIC,[7],1 µg/mL
same,MIC50,[7],1 µg/mL
same,MIC80,[7],1 µg/mL
same,MIC,[8],1 µg/mL
same,MIC50,[8],1 µg/mL
same,MIC80,[8],1 µg/mL
same,MIC,[9],1 µg/mL
same,MIC50,[9],1 µg/mL
same,MIC80,[9],1 µg/mL
same,MIC,[10],0.5 µg/mL
same,MIC50,[10],0.5 µg/mL
same,MIC80,[10],0.5 µg/mL
same,MIC,[11],1 µg/mL
same,MIC50,[11],1 µg/mL
same,MIC80,[11],1 µg/mL
same,MIC,[12],1 µg/mL
same,MIC50,[12],1 µg/mL
same,MIC80,[12],1 µg/mL
same,MIC,[13],1 µg/mL
same,MIC50,[13],1 µg/mL
same,MIC80,[13],1 µg/mL
same,MIC,[14],1 µg/mL
same,MIC50,[14],1 µg/mL
same,MIC80,[14],1 µg/mL
same,MIC,[15],1 µg/mL
same,MIC50,[15],0.5 µg/mL
same,MIC80,[15],1 µg/mL
same,MIC,[16],1 µg/mL
same,MIC50,[16],0.5 µg/mL
same,MIC80,[16],1 µg/mL
same,MIC,[17],1 µg/mL
same,MIC50,[17],1 µg/mL
same,MIC80,[17],1 µg/mL
same,MIC,[18],2 µg/mL
same,MIC50,[18],2 µg/mL
same,MIC80,[18],2 µg/mL
same,MIC,[19],1 µg/mL
same,MIC50,[19],0.5 µg/mL
same,MIC80,[19],0.5 µg/mL
